According to ChEMBL document CHEMBL5725720, “Pyrazolopyridines and pyrazolopyrimidines” (2016):

How the values were obtained:
[1] = biological target: Tyrosine-protein kinase JAK1 (Homo sapiens, UniProt P23458); experiment: (§1) JAK Caliper Enzyme Assay at 1 mM ATP: Test article was solubilized in dimethyl sulfoxide (DMSO) to a stock concentration of 30 mM. An 11-point half log dilution series was created in DMSO with a top concentration of 600 μM. […] The compound plates were diluted 1 to 60 resulting in a top final assay compound concentration of 10 μM and a 2% DMSO concentration.Test article and assay controls were added to a 384-well plate. Reaction mixtures contained 20 mM HEPES, pH 7.4, 10 mM magnesium chloride, 0.01% bovine serum albumin (BSA), 0.0005% Tween 20, 1 mM ATP and 1 μM peptide substrate. The JAK1 and TYK2 assays contained 1 μM of the IRStide peptide (5FAM-[…]) and the JAK2 and JAK3 assays contained 1 μM of the JAKtide peptide (FITC-[…]). […] Enzyme concentrations and incubation times were optimized for each new enzyme preps and were modified slightly over time to ensure 20%-30% phosphorylation. The assays were stopped with a final concentration of 10 mM EDTA, 0.1% Coating Reagent and 100 mM HEPES, pH=7.4. The assay plates were placed on a Caliper Life Science Lab Chip 3000 (LC3000) instrument, and each well was sampled using appropriate separation conditions to measure the unphosphorylated and phosphorylated peptide.
[2] = biological target: Tyrosine-protein kinase JAK2 (Homo sapiens, UniProt O60674); experiment: JAK Caliper Enzyme Assay at 1 mM ATP: Test article was solubilized in dimethyl sulfoxide (DMSO) to a stock concentration of 30 mM. An 11-point half log dilution series was created in DMSO with a top concentration of 600 μM. […] The compound plates were diluted 1 to 60 resulting in a top final assay compound concentration of 10 μM and a 2% DMSO concentration.Test article and assay controls were added to a 384-well plate. Reaction mixtures contained 20 mM HEPES, pH 7.4, 10 mM magnesium chloride, 0.01% bovine serum albumin (BSA), 0.0005% Tween 20, 1 mM ATP and 1 μM peptide substrate. […] Enzyme concentrations and incubation times were optimized for each new enzyme preps and were modified slightly over time to ensure 20%-30% phosphorylation. The assays were stopped with a final concentration of 10 mM EDTA, 0.1% Coating Reagent and 100 mM HEPES, pH=7.4. The assay plates were placed on a Caliper Life Science Lab Chip 3000 (LC3000) instrument, and each well was sampled using appropriate separation conditions to measure the unphosphorylated and phosphorylated peptide.
[3] = biological target: T1, Tyrosine-protein kinase JAK3 (Homo sapiens, UniProt P52333); experiment: as §1
T1 sequence (P52333 whole entry): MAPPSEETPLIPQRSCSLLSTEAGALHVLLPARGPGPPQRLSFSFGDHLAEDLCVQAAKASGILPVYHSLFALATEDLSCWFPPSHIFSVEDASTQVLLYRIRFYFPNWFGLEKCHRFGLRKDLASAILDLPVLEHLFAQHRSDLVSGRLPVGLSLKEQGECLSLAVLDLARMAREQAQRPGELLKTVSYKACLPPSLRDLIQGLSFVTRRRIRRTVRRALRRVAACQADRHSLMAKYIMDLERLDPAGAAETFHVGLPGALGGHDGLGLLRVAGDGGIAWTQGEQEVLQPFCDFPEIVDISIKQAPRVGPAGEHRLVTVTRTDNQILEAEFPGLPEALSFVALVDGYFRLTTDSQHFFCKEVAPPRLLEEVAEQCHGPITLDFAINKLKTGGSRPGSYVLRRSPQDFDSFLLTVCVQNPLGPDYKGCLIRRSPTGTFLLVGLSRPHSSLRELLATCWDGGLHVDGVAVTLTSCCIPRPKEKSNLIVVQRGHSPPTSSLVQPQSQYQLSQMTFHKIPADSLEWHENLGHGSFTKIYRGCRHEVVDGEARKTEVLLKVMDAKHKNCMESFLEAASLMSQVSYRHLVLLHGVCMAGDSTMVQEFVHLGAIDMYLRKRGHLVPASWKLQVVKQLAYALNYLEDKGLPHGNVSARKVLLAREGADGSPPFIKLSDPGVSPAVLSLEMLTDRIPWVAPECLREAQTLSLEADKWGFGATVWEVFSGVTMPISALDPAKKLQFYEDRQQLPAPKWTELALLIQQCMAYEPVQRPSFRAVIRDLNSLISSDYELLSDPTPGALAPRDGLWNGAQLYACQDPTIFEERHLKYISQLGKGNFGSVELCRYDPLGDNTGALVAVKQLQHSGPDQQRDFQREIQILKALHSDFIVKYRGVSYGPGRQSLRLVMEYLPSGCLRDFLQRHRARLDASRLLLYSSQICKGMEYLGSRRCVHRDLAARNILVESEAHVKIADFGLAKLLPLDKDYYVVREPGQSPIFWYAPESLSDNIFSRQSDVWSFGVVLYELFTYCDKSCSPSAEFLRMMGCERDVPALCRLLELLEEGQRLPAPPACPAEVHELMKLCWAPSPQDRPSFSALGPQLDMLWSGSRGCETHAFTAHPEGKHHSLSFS

[4] = biological target: Non-receptor tyrosine-protein kinase TYK2 (Homo sapiens, UniProt P29597); experiment: as §1
Chain of Non-receptor tyrosine-protein kinase TYK2 (P29597 whole entry): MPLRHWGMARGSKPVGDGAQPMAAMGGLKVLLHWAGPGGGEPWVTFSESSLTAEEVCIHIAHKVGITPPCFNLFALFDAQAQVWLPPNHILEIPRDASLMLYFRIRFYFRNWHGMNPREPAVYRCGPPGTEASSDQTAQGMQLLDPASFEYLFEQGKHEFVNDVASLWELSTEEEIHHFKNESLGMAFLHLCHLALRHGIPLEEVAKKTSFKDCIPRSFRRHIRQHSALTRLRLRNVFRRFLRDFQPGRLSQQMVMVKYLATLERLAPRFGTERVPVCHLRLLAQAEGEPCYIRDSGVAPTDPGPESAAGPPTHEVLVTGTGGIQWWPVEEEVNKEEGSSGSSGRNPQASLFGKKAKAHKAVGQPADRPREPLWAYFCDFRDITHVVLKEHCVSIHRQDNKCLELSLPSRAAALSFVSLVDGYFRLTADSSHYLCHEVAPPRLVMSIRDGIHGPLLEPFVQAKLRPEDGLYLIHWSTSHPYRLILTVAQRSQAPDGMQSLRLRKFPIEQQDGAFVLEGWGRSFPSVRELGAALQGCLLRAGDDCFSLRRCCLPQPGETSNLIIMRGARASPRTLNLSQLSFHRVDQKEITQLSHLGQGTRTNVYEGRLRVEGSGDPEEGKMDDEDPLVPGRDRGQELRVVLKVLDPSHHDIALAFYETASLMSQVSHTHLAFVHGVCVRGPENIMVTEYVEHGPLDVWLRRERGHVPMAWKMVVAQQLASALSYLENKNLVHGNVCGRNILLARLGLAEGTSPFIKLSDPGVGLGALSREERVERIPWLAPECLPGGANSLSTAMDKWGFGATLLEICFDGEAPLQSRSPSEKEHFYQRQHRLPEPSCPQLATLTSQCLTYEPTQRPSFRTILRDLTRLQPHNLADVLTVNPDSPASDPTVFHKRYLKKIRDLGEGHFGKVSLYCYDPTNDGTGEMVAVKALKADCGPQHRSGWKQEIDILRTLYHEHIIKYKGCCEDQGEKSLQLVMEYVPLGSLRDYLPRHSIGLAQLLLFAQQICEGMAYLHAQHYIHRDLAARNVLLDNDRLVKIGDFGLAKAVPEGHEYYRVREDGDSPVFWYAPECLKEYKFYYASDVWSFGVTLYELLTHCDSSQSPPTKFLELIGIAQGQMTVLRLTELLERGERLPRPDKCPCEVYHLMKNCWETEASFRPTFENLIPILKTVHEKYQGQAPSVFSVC

Chain of Tyrosine-protein kinase JAK2 (O60674 whole entry): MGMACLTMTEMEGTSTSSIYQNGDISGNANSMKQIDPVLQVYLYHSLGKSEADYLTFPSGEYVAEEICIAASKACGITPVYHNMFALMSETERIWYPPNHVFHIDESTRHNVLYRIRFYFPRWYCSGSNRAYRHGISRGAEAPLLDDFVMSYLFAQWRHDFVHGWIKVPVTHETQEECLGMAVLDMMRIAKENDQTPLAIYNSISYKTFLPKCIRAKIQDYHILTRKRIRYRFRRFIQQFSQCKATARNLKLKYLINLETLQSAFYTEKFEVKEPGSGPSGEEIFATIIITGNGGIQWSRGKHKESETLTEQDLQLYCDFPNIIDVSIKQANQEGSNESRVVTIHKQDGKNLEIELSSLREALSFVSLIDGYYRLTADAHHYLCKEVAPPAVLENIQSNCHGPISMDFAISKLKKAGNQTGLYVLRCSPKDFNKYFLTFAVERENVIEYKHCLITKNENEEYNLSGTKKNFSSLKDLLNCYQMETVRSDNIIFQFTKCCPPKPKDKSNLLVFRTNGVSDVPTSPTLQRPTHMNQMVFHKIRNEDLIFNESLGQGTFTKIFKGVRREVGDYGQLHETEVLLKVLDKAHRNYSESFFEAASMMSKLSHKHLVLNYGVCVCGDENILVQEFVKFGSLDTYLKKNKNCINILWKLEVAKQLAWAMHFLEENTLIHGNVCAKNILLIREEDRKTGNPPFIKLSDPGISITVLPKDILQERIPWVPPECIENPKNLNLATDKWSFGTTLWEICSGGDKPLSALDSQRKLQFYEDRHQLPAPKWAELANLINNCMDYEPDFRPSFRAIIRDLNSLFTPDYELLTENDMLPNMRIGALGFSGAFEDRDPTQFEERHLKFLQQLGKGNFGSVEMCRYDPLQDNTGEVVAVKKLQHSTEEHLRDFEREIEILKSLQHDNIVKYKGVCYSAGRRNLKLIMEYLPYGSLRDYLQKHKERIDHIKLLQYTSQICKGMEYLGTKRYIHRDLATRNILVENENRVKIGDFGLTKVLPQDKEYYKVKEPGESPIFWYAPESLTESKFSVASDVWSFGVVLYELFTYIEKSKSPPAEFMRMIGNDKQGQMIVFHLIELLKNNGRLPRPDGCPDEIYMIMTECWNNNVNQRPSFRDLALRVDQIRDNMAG
Chain of Tyrosine-protein kinase JAK1 (P23458 whole entry): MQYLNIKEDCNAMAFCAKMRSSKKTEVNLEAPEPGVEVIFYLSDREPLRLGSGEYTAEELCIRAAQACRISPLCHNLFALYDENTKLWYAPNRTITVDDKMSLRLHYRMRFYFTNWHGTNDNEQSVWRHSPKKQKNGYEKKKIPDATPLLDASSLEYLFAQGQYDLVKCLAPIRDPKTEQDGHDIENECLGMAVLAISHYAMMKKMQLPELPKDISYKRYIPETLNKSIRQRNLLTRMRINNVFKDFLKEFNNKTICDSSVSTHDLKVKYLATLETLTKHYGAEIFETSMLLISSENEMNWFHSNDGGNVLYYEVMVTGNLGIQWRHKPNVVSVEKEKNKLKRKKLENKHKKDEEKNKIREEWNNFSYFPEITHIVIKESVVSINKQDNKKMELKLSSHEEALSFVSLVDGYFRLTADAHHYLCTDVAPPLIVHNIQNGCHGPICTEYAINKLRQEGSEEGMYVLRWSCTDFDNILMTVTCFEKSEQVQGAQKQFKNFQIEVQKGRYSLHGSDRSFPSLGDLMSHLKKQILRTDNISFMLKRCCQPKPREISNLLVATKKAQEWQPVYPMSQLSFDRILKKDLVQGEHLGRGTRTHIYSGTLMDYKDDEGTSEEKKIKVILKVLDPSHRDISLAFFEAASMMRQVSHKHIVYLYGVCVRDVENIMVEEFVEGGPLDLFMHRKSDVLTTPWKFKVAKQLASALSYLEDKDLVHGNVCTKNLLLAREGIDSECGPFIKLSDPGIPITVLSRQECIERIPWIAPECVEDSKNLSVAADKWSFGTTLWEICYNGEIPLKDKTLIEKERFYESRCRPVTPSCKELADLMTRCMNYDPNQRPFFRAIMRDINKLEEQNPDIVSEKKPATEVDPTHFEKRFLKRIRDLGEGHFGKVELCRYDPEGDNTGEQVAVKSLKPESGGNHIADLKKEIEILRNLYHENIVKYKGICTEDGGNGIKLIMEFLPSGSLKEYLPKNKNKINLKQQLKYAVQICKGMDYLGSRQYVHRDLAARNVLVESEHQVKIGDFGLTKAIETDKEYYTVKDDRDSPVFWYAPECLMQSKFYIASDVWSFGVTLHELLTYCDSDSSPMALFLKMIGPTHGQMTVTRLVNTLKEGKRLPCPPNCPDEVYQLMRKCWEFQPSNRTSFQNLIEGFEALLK

`CC(=O)N1CCc2[nH]c(-c3n[nH]c4nc(-c5cc(F)c(O)cc5CC(F)(F)F)nc(NCc5cc(O)ccc5N(C)S(C)(=O)=O)c34)nc2C1` gave an IC50 [1] of 3.2 nM.
`CCc1cc(O)ccc1-c1cc2[nH]ncc2c(N2CCc3cc(OCCOC)ccc3C2)n1` showed an IC50 [2] of 25.9 nM, an IC50 [3] of 56.2 nM and an IC50 [4] of 289 nM. For the same molecule, the IC50 [1] was 10.1 nM.
Work on `CCc1cc(O)ccc1-c1cc2[nH]ncc2c(N2CCc3cc(-n4cnc(C)c4)ccc3C2)n1` yielded an IC50 [2] of 26.3 nM, an IC50 [3] of 42.4 nM and an IC50 [4] of 723 nM. It also gave an IC50 [1] of 10.7 nM.
`CCc1cc(O)c(F)cc1-c1cc2[nH]ncc2c(NCc2ccccc2N(C)S(=O)(=O)CC)n1` gave an IC50 [3] of 17.3 nM, an IC50 [4] of 8.4 nM and an IC50 [1] of 0.7 nM.
`CCc1cc(O)ccc1-c1cc2[nH]ncc2c(N2CCc3cccc(OC)c3C2)n1` gave an IC50 [2] of 25.1 nM, an IC50 [3] of 78.1 nM and an IC50 [4] of 478 nM.
`CCc1cc(O)ccc1-c1cc2[nH]ncc2c(N2CCc3c(Cl)cccc3C2)n1` was tested, and the IC50 [2] was 46.5 nM, the IC50 [3] was 111 nM and the IC50 [4] was 561 nM. For the same molecule, the IC50 [1] was 39.4 nM.
`CN(c1ccc(O)cc1CNc1nc(-c2cc(F)c(O)cc2CC(F)(F)F)nc2[nH]nc(C(N)=O)c12)S(=O)(=O)c1ccccc1` was tested, and the IC50 [2] was 123 nM.
In the case of `CCc1cc(O)ccc1-c1cc2[nH]ncc2c(N2CCc3cc(OC)c(OCc4ccccc4)cc3C2)n1`, the IC50 [3] is reported as 340 nM, the IC50 [4] is reported as 2730 nM and the IC50 [1] is reported as 67.4 nM.
`CSCCNc1nc(-c2cc(F)c(O)cc2CC(F)(F)F)cc2[nH]nc(-c3nc4c([nH]3)CCN(Cc3ccccc3)C4)c12` was tested, and the IC50 [2] was 196 nM, the IC50 [3] was 589 nM and the IC50 [4] was 172 nM. It also gave an IC50 [1] of 50 nM.
In the case of `CCc1cc(O)ccc1-c1cc2[nH]ncc2c(N2CCc3cc(F)ccc3C2)n1`, the IC50 [2] is reported as 16.9 nM, the IC50 [3] is reported as 40.8 nM and the IC50 [4] is reported as 302 nM. It also gave an IC50 [1] of 9.7 nM.
In the case of `CCCCN(c1ccccc1CN(C)c1nc(-c2cc(F)c(O)cc2CC)cc2[nH]ncc12)S(C)(=O)=O`, the IC50 [2] is reported as 43.2 nM, the IC50 [3] is reported as 61.6 nM and the IC50 [1] is reported as 19.5 nM.
Molecule `CCc1cc(O)ccc1-c1cc2[nH]ncc2c(N2CCc3ccc(OC)c(OC)c3C2)n1` has an IC50 [2] of 52.4 nM, an IC50 [3] of 194 nM and an IC50 [4] of 1540 nM. It also gave an IC50 [1] of 13.8 nM.
For `CN(c1ccc(F)cc1CNc1nc(-c2cc(F)c(O)cc2CC(F)(F)F)cc2[nH]nc(C(N)=O)c12)S(C)(=O)=O`, the IC50 [2] was 41.1 nM, the IC50 [3] was 140 nM and the IC50 [4] was 127 nM. For the same molecule, the IC50 [1] was 6.6 nM.
